Results taken from patent US20250325531A1, “TREATMENT OF SYSTOLIC DYSFUNCTION” (MyoKardia, Inc., priority 2024, published 2025).

Columns and labels:
[1] = tested on: patients with stable HFrEF; experiment: TTE pharmacodynamics in SAD cohorts, patients with stable HFrEF; type: in vivo, human; conditions: Pooled SAD Cohorts 1 and 2
Description: PD assessment was done by transthoracic echocardiography as described in Example 1 above. TTE evaluations of LVSV (derived from LVOT-VTI), LVEF, LVFS, SET, and other parameters were PD assessments at predetermined time points. The patients were on bed rest for 10 minutes before the TTEs were obtained. In Part 2 (MAD), TTEs were usually obtained before the morning dose and/or at 7 hours postdose (i.e., close to the anticipated peak effect based on the PK profile from the healthy volunteer studies).
For both Cohorts 1 and 2, the pharmacodynamic effects of Compound I on echocardiographic markers of cardiac structure and function were analyzed by Compound I plasma concentration groups: <2000 ng/ml (low concentration group) and ≥2000 ng/ml (high concentration group) (Table 12).

healthy volunteers = experiment: Safety and tolerability in food effect study, healthy volunteers; type: in vivo, human; conditions: 200 mg
Description: ECG was performed as described in Example 1. The following intervals were measured: RR, PR, QRS, and QT. Heart rate (HR) was calculated as […] (with RR expressed in msec) and rounded to the nearest integer. Each individual ECG QT value was corrected for HR. The measured QT data was corrected for HR using the Fridericia method (QTcF) as per the following formulae/method (with QT, RR and QTc expressed in ms): […]
The Investigator or designee monitored the continuous ECG telemetry data and correlated the finding(s) with any other clinical findings, study participant's medical history, study participant's clinical status and laboratory data to determine the clinical importance of the finding.
Serum troponin-I concentrations were determined as described in Example 1. Abnormal and/or rising troponin values (as per Investigator's judgment and taking into account potential Baseline troponin elevation) led to the subject being clinically evaluated for possible myocardial ischemia. […] The entire clinical context would be evaluated (e.g., signs, symptoms, new ECG changes, new troponin, and CK-MB abnormalities) and correlated with any other relevant clinical findings, the subject's medical history, and laboratory data to determine the clinical significance of the findings.

[2] = plasma concentration group <2000 ng/mL (n = 7)
[3] = plasma concentration group ≥2000 ng/mL (n = 12)

## Cn1cc(S(=O)(=O)[C@@](C)(F)C2CCN(C(=O)Nc3ccon3)CC2)c(C(F)F)n1 [Compound I, (R)-4-(1-((3-(difluoromethyl)-1-methyl-1H-pyrazol-4-yl)sulfonyl)-1-fluoroethyl)-N-(isoxazol-3-yl) piperidine-1-carboxamide]
[1]; [2]
  A wave peak, placebo-corrected mean change from Baseline (LS mean difference): -3.2 cm/s
  E wave peak, placebo-corrected mean change from Baseline (LS mean difference): -1.1 cm/s
  E/A ratio, placebo-corrected mean change from Baseline (LS mean difference): 0.09
  E/e′ lateral, placebo-corrected mean change from Baseline (LS mean difference): 0.6
  LVEDD, placebo-corrected mean change from Baseline (LS mean difference): 0.2 mm
  LVEDV, placebo-corrected mean change from Baseline (LS mean difference): -2.5 mL
  LVEF, placebo-corrected mean change from Baseline (LS mean difference): 4.1%
  LVESD, placebo-corrected mean change from Baseline (LS mean difference): −1.3 mm
  LVESV, placebo-corrected mean change from Baseline (LS mean difference): -4.0 mL
  LVFS, placebo-corrected mean change from Baseline (LS mean difference): 3.1%
  LVGLS, placebo-corrected mean change from Baseline (LS mean difference): −1.1%
  LVSV, placebo-corrected mean change from Baseline (LS mean difference): 1.0 mL
  SET, placebo-corrected mean change from Baseline (LS mean difference): 8 ms
  e′ lateral, placebo-corrected mean change from Baseline (LS mean difference): -1 cm/s
[1]; [3]
  A wave peak, placebo-corrected mean change from Baseline (LS mean difference): -8.8 cm/s
  E wave peak, placebo-corrected mean change from Baseline (LS mean difference): -1.6 cm/s
  E/A ratio, placebo-corrected mean change from Baseline (LS mean difference): 0.08
  E/e′ lateral, placebo-corrected mean change from Baseline (LS mean difference): 0.2
  LVEDD, placebo-corrected mean change from Baseline (LS mean difference): −0.3 mm
  LVEDV, placebo-corrected mean change from Baseline (LS mean difference): -1.9 mL
  LVEF, placebo-corrected mean change from Baseline (LS mean difference): 4.4%
  LVESD, placebo-corrected mean change from Baseline (LS mean difference): −1.8 mm
  LVESV, placebo-corrected mean change from Baseline (LS mean difference): -3.5 mL
  LVFS, placebo-corrected mean change from Baseline (LS mean difference): 2.8%
  LVGLS, placebo-corrected mean change from Baseline (LS mean difference): −2.1%
  LVSV, placebo-corrected mean change from Baseline (LS mean difference): 9.0 mL
  SET, placebo-corrected mean change from Baseline (LS mean difference): 36 ms
  e′ lateral, placebo-corrected mean change from Baseline (LS mean difference): -1 cm/s
Healthy volunteers; fasted state
  abnormal ECG results: 3 (30.0%) n (%)
  drug-related headache, subjects: 3 subjects
  headache, subjects: 4 subjects
Healthy volunteers; fasted state (1 sinus tachycardia and 1 ventricular tachycardia)
  Cardiac disorders, subjects: 2 subjects
Healthy volunteers; fed state
  abnormal ECG results: 2 (20.0%) n (%)
  drug-related headache, subjects: 1 subject
  headache, subjects: 1 subject
Healthy volunteers; fed state (palpitations)
  Cardiac disorders, subjects: 1 subject
